# Measured values: patent publication US11426443B2, “Compositions and methods for invasive and non-invasive procedural skincare” (Alastin Skincare, Inc., priority 2016, dated 2022)
# Legend:
# [1] = type: physicochemical
# Text: Certain components of the formulation tend to be difficult to solubilize in conventional formulations. […] For topical compositions containing from about 0.05% by weight to about 0.1% by weight phosphatidyl serine and/or from about 0.05% by weight to about 0.1% by weight oleuropein, caprylyl methicone in an amount of from about 0.5% by weight to about 1% by weight of caprylyl methicone can solubilize these components in an anhydrous formulation.
# In Formula 8B, the amount of palmitoyl tripeptide was increased to 3%, and phosphatidylserine (lipoid PS P 70) was added, along with oleuropein 80% at 0.025%. […] In Formula 9B, the concentration of heptyl undecylenate was lowered to 2.5%, caprylyl methicone was added to solubilize the Lipoind PS P 70, which was increased to 0.05%, and oleuropein 80% was increased to 0.05%. The viscosity for Formula 9B was approximately 5000 cPs.
# MMP-2 = conditions: wound chamber, vs control, cited from earlier work
# VEGF = conditions: pg VEGF/ng DNA as a function of GHK ng/mL; FIG. 11; cited from earlier work
solubility in heptyl undecylenate [1],Compound,"gelatinolytic activity (peaks area/μg protein), MMP-2 (MMP-2; from day 3, peaking at days 18-22, FIG. 9)","gelatinolytic activity (peaks area/μg protein) (MMP-2; from day 12, peaking at days 18-22, FIG. 10)",secretion of VEGF (VEGF)
poor solubility,C/C=C1/[C@H](O[C@@H]2O[C@H](CO)[C@@H](O)[C@H](O)[C@H]2O)OC=C(C(=O)OC)[C@H]1CC(=O)OCCc1ccc(O)c(O)c1 [oleuropein],–,–,–
–,glycine-histidine-lysine [GHK],far greater degree than control,far greater degree than control,dose-dependently increases
poor solubility,phosphatidylserine [Lipoid PS P70],–,–,–
